Legend:
Format in all cases: in vivo
[1] = tested on: pigweed (Amaranthus retroflexus); experiment: Test A postemergence, pigweed; conditions: visual injury, 0 to 100 scale (0 no effect, 100 complete control), approximately 10 days
Text: (§1) Test A Seeds of plant species selected from barnyardgrass (Echinochloa crus-galli), kochia (Kochia scoparia), ragweed (common ragweed, Ambrosia elatior), ryegrass, Italian (Lolium multiflorum), foxtail, giant (Setaria faberii), and pigweed (Amaranthus retroflexus), were planted into a blend of loam soil and sand and treated preemergence with a directed soil spray using test chemicals formulated in a non-phytotoxic solvent mixture which included a surfactant.
(§2) At the same time, plants selected from these weed species and also blackgrass (Alopecurus myosuroides), galium (catchweed bedstraw, Galium aparine), wheat (Triticum aestivum), and corn (Zea mays) were planted in pots containing the same blend of loam soil and sand and treated with postemergence applications of test chemicals formulated in the same manner. Plants ranged in height from 2 to 10 cm and were in the one- to two-leaf stage for the postemergence treatment. Treated plants and untreated controls were maintained in a greenhouse for approximately 10 days, after which time all treated plants were compared to untreated controls and visually evaluated for injury. Plant response ratings, summarized in Table A, are based on a 0 to 100 scale where 0 is no effect and 100 is complete control. A dash (-) response means no test result.

kochia (Kochia scoparia) [2] = experiment: Test A preemergence, kochia; conditions: 0 to 100 scale (0 no effect, 100 complete control)
Text: as §1, §2

[3] = tested on: barnyardgrass (Echinochloa crus-galli); experiment: Test A preemergence, barnyardgrass; conditions: 0 to 100 scale (0 no effect, 100 complete control)
Text: as §1, §2

[4] = tested on: barnyardgrass (Echinochloa crus-galli); experiment: Test A postemergence, barnyardgrass; conditions: visual injury, 0 to 100 scale (0 no effect, 100 complete control), approximately 10 days
Text: as §1, §2

[5] = tested on: galium (catchweed bedstraw, Galium aparine); experiment: Test A postemergence, galium; conditions: visual injury, 0 to 100 scale (0 no effect, 100 complete control), approximately 10 days
Text: as §1, §2

[6] = tested on: ragweed (common ragweed, Ambrosia elatior); experiment: Test A postemergence, ragweed; conditions: visual injury, 0 to 100 scale (0 no effect, 100 complete control), approximately 10 days
Text: as §1, §2

[7] = tested on: pigweed (Amaranthus retroflexus); experiment: Test A preemergence, pigweed; conditions: 0 to 100 scale (0 no effect, 100 complete control)
Text: as §1, §2

[8] = tested on: blackgrass (Alopecurus myosuroides); experiment: Test A postemergence, blackgrass; conditions: visual injury, 0 to 100 scale (0 no effect, 100 complete control), approximately 10 days
Text: as §1, §2

corn (Zea mays) = experiment: Test A postemergence, corn; conditions: visual injury, 0 to 100 scale (0 no effect, 100 complete control), approximately 10 days
Text: as §1, §2

[9] = tested on: foxtail, giant (Setaria faberii); experiment: Test A postemergence, giant foxtail; conditions: visual injury, 0 to 100 scale (0 no effect, 100 complete control), approximately 10 days
Text: as §1, §2

[10] = tested on: ragweed (common ragweed, Ambrosia elatior); experiment: Test A preemergence, ragweed; conditions: 0 to 100 scale (0 no effect, 100 complete control)
Text: as §1, §2

[11] = tested on: ryegrass, Italian (Lolium multiflorum); experiment: Test A postemergence, Italian ryegrass; conditions: visual injury, 0 to 100 scale (0 no effect, 100 complete control), approximately 10 days
Text: as §1, §2

[12] = tested on: ryegrass, Italian (Lolium multiflorum); experiment: Test A preemergence, Italian ryegrass; conditions: 0 to 100 scale (0 no effect, 100 complete control)
Text: as §1, §2

[13] = tested on: foxtail, giant (Setaria faberii); experiment: Test A preemergence, giant foxtail; conditions: 0 to 100 scale (0 no effect, 100 complete control)
Text: as §1, §2

kochia (Kochia scoparia) [14] = experiment: Test A postemergence, kochia; conditions: visual injury, 0 to 100 scale (0 no effect, 100 complete control), approximately 10 days
Text: as §1, §2

[15] = tested on: wheat (Triticum aestivum); experiment: Test A postemergence, wheat; conditions: visual injury, 0 to 100 scale (0 no effect, 100 complete control), approximately 10 days
Text: as §1, §2

SMILES | Plant response rating, Pigweed ([1]; 125 g ai/ha) | Plant response rating, Pigweed ([1]; 500 g ai/ha) | Plant response rating, Kochia (kochia (Kochia scoparia) [2]; 125 g ai/ha) | Plant response rating, Kochia (kochia (Kochia scoparia) [2]; 500 g ai/ha) | Plant response rating, Barnyardgrass ([3]; 125 g ai/ha) | Plant response rating, Barnyardgrass ([3]; 500 g ai/ha) | Plant response rating, Barnyardgrass ([4]; 125 g ai/ha) | Plant response rating, Barnyardgrass ([4]; 500 g ai/ha) | Plant response rating, Galium ([5]; 125 g ai/ha) | Plant response rating, Galium ([5]; 500 g ai/ha) | Plant response rating, Ragweed ([6]; 125 g ai/ha) | Plant response rating, Ragweed ([6]; 500 g ai/ha) | Plant response rating, Pigweed ([7]; 125 g ai/ha) | Plant response rating, Pigweed ([7]; 500 g ai/ha) | Plant response rating, Blackgrass ([8]; 125 g ai/ha) | Plant response rating, Blackgrass ([8]; 500 g ai/ha) | Plant response rating, Corn (corn (Zea mays); 125 g ai/ha) | Plant response rating, Corn (corn (Zea mays); 500 g ai/ha) | Plant response rating, Foxtail, Giant ([9]; 125 g ai/ha) | Plant response rating, Foxtail, Giant ([9]; 500 g ai/ha) | other results
O=C1NCC(c2cccc(Cn3cccn3)c2)C1C(=O)Nc1cccc(F)c1F (stereo not drawn) [Compound 30] | 0 | 0 | 0 | 0 | 0 | 50 | 20 | 60 | 0 | 0 | 0 | 0 | 0 | 0 | 0 | 0 | 0 | 0 | 30 | 50 | Plant response rating, Ragweed ([10]; 125 g ai/ha): 0; Plant response rating, Ragweed ([10]; 500 g ai/ha): 0; Plant response rating, Ryegrass, Italian ([11]; 125 g ai/ha): 0; Plant response rating, Ryegrass, Italian ([11]; 500 g ai/ha): 0; Plant response rating, Ryegrass, Italian ([12]; 125 g ai/ha): 0; Plant response rating, Ryegrass, Italian ([12]; 500 g ai/ha): 0; Plant response rating, Foxtail, Giant ([13]; 125 g ai/ha): 20; Plant response rating, Foxtail, Giant ([13]; 500 g ai/ha): 90; Plant response rating, Kochia (kochia (Kochia scoparia) [14]; 125 g ai/ha): 0; Plant response rating, Kochia (kochia (Kochia scoparia) [14]; 500 g ai/ha): 0; Plant response rating, Wheat ([15]; 125 g ai/ha): 0; Plant response rating, Wheat ([15]; 500 g ai/ha): 0
O=C1NCC(c2cccc(Cn3cncn3)c2)C1C(=O)Nc1ccccc1F (stereo not drawn) [Compound 31] | 0 | 0 | 0 | 0 | 0 | 0 | 0 | 0 | 0 | 20 | 0 | 0 | 0 | 0 | 0 | 0 | 0 | 0 | 0 | 0 | Plant response rating, Ragweed ([10]; 125 g ai/ha): 0; Plant response rating, Ragweed ([10]; 500 g ai/ha): 0; Plant response rating, Ryegrass, Italian ([11]; 125 g ai/ha): 0; Plant response rating, Ryegrass, Italian ([11]; 500 g ai/ha): 0; Plant response rating, Ryegrass, Italian ([12]; 125 g ai/ha): 0; Plant response rating, Ryegrass, Italian ([12]; 500 g ai/ha): 0; Plant response rating, Foxtail, Giant ([13]; 125 g ai/ha): 0; Plant response rating, Foxtail, Giant ([13]; 500 g ai/ha): 0; Plant response rating, Kochia (kochia (Kochia scoparia) [14]; 125 g ai/ha): 0; Plant response rating, Kochia (kochia (Kochia scoparia) [14]; 500 g ai/ha): 0; Plant response rating, Wheat ([15]; 125 g ai/ha): 0; Plant response rating, Wheat ([15]; 500 g ai/ha): 0
O=C1NCC(c2cccc(Cn3cncn3)c2)C1C(=O)Nc1cccc(F)c1F (stereo not drawn) [Compound 32] | 0 | 0 | 0 | 0 | 0 | 0 | 0 | 10 | 0 | 40 | 0 | 0 | 0 | 0 | 0 | 0 | 0 | 0 | 0 | 20 | Plant response rating, Ragweed ([10]; 125 g ai/ha): 0; Plant response rating, Ragweed ([10]; 500 g ai/ha): 0; Plant response rating, Ryegrass, Italian ([11]; 125 g ai/ha): 0; Plant response rating, Ryegrass, Italian ([11]; 500 g ai/ha): 0; Plant response rating, Ryegrass, Italian ([12]; 125 g ai/ha): 0; Plant response rating, Ryegrass, Italian ([12]; 500 g ai/ha): 0; Plant response rating, Foxtail, Giant ([13]; 125 g ai/ha): 0; Plant response rating, Foxtail, Giant ([13]; 500 g ai/ha): 40; Plant response rating, Kochia (kochia (Kochia scoparia) [14]; 125 g ai/ha): 0; Plant response rating, Kochia (kochia (Kochia scoparia) [14]; 500 g ai/ha): 0; Plant response rating, Wheat ([15]; 125 g ai/ha): 0; Plant response rating, Wheat ([15]; 500 g ai/ha): 0

— US10405547B2, “Substituted cyclic amides as herbicides” (FMC Corporation, priority 2015, dated 2019)
